Source: patent US9919001B2, “Drug carrier having L-DNA nanocage structure” (Korea Institute of Science and Technology, priority 2013, dated 2018)

System: MCF-7/ADR cells
Experiment: MTT cell viability assay (small molecule drug delivery)
Type: cell-based
Details: average of triplicate
Experimental: For DOX intercalation into the Cy5-labeled Td, DOX (1 mM) was mixed with the fluorescent DNA tetrahedron (10 μM) for 1 h and then run through NAP10 (G25-DNA grade column, GE Healthcare, USA) to remove the free DOX remaining in solution. The number of intercalated DOX molecules per DNA tetrahedron was calculated using the extinction coefficient of Cy5 at 633 nm (ϵ=230400) and that of DOX at 480 nm (ϵ=10410), respectively.
Drug-sensitive MCF-7 cells and drug-resistant MCF-7/ADR cells were used for cell viability assays. Cytotoxicity of Td was estimated using an MTT assay. Briefly, 8×10^3 mammalian cells were seeded with media (100 μL) in 96-well plates and cultured overnight to reach ˜80% confluency. The cells were then incubated in the fresh media containing Td at 37° C. for 6 h in the CO2 chamber. […] Then, thiazolyl blue tetrazolium bromide (MTT, TACS, Germany) solution (10 μL) was added to each well, followed by 4 h incubation at 37° C. Next, cells were lysed with 200 μL of dimethyl sulfoxide (DMSO, Sigma-Aldrich, USA). After overnight incubation at room temperature, the absorbance was measured at 580 nm using a microplate reader (SpectraMaxPlus™, Molecular Devices, USA).

COc1cccc2c1C(=O)c1c(O)c3c(c(O)c1C2=O)C[C@@](O)(C(=O)CO)C[C@@H]3O[C@H]1C[C@H](N)[C@H](O)[C@H](C)O1 [Free-DOX, doxorubicin]
Cell viability assay (%) (24 h): 98.9% | Cell viability assay (%) (48 h): 93.6% | Cell viability assay (%) (72 h): 89.2%
